Results published in ChEMBL document CHEMBL1145787, “Synthesis and structure-activity relationship of N-substituted 4-arylsulfonylpiperidine-4-hydroxamic acids as novel, orally active matrix metalloproteinase inhibitors for the treatment of osteoarthritis” (J Med Chem, 2003).

Legend:
Rattus norvegicus = test: In vivo inhibition of Matrix metalloprotease enzyme by Sponge-wrapped cartilage assay at 25 mg/kg. po. qd; assay type: functional
[1] = target: Matrix metalloproteinase-9 (Homo sapiens, UniProt P14780); test: In vitro inhibitory activity against matrix metalloprotease-9.
Sequence of Matrix metalloproteinase-9 (P14780 whole entry): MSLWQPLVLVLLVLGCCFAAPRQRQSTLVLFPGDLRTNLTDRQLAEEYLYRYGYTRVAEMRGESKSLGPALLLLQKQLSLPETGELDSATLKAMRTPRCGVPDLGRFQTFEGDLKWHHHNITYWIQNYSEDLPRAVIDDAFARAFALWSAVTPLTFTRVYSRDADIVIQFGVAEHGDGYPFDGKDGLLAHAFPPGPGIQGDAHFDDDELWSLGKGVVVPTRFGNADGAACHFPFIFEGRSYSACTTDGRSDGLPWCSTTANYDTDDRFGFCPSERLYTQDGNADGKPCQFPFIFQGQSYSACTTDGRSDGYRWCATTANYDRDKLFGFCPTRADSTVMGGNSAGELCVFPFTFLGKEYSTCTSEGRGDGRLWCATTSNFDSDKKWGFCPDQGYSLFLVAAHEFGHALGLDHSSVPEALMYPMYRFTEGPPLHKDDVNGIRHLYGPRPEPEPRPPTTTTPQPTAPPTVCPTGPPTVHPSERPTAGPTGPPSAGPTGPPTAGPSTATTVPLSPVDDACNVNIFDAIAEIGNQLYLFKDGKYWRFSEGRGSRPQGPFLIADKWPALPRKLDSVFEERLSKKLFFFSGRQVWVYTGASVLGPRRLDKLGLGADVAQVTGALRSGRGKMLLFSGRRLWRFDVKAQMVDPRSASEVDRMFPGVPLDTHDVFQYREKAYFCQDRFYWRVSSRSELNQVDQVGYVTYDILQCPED

[2] = In vivo inhibitory activity against Matrix metalloprotease enzyme by dialysis implant assay, value is relative to activity of CGS-27023 (53+/-3) at 25 mg/kg. po; assay type: functional

| SMILES | Protection (Rattus norvegicus) [%] | IC50 [1] [nM] | inhibition in vivo at 25 mg/kg [2] [%] |
| --- | --- | --- | --- |
| COc1ccc(S(=O)(=O)C(C)(Cc2ccc(OCCN3CCCCC3)cc2)C(=O)NO)cc1 (stereo not drawn) | 68 | – | – |
| COc1ccc(S(=O)(=O)C2(C(=O)NO)CCN(CCCc3ccccc3)CC2)cc1 | – | 13 | 9 |
